In patent US20240245682A1, “ALPHA-V-BETA-8 INTEGRIN INHIBITORS AND USES THEREOF” (Pliant Therapeutics, Inc., priority 2022, published 2024):

Tests used:
Assay in all cases: AlphaScreen proximity-based integrin binding assay with TGF-b1 LAP
Details in all cases: values given as ranges
human integrin αVβ6 = human integrin αVβ6 (Homo sapiens, UniProt P06756+P18564)
Experimental: (§1) The biochemical potency of the disclosed compounds was determined using the AlphaScreen® (Perkin Elmer, Waltham, MA) proximity-based assay as described previously (Ullman E F et al., Luminescent oxygen channeling immunoassay: Measurement of particle binding kinetics by chemiluminescence. Proc. Natl. Acad. Sci. USA, Vol. 91, pp. 5426-5430, June 1994, herein incorporated by reference in its entirety). To gauge the potency of inhibitors of binding to each of human integrins αVβ1, αVβ6, and αVβ8, inhibitor compounds were independently incubated with one of αVβ1, αVβ6, or αVβ8, together with TGF-b1 LAP and biotinylated anti-LAP antibody plus acceptor and donor beads, following the manufacture's recommendations. The donor beads were coated with streptavidin. […] All incubations occurred at room temperatures in 50 mM Tris-HCl, pH 7.5, 0.1% BSA supplemented with 1 mM each CaCl2 and MgCl2.
(§2) The order of reagent addition was as follows:
(§3) 1. αVβ1, αVβ6, or αVβ8 integrin, test inhibitor compound, LAP, biotinylated anti-LAP antibody and acceptor beads were all added together.
(§4) 2. After 2 hours, donor beads were added. After another 30 minute incubation, samples were then read.
(§5) Integrin binding was evaluated by exciting donor beads at 680 nm, and measuring the fluorescent signal produced, between 520-620 nm, using a Biotek Instruments (Winooski, VT, USA) SynergyNeo2 multimode plate reader. Compound potency was assessed by determining inhibitor concentrations required to reduce fluorescent light output by 50%. Data analysis for IC50 determinations was carried out by nonlinear four parameter logistic regression analysis using Dotmatics ELN Software (Core Informatics Inc., Branford, Ct). […] Comp #in the Table and Examples below refers to the compound of the corresponding Example number as described in the Synthetic Examples.

human integrin αVβ8 = human integrin αVβ8 (Homo sapiens, UniProt P06756+P26012)
Experimental: as §1, §2, §3, §4, §5

human integrin αVβ1 = human integrin αVβ1 (Homo sapiens, UniProt P05556+P06756)
Experimental: as §1, §2, §3, §4, §5

human integrin αVβ8, sequence (P06756 31-992 limits assumed): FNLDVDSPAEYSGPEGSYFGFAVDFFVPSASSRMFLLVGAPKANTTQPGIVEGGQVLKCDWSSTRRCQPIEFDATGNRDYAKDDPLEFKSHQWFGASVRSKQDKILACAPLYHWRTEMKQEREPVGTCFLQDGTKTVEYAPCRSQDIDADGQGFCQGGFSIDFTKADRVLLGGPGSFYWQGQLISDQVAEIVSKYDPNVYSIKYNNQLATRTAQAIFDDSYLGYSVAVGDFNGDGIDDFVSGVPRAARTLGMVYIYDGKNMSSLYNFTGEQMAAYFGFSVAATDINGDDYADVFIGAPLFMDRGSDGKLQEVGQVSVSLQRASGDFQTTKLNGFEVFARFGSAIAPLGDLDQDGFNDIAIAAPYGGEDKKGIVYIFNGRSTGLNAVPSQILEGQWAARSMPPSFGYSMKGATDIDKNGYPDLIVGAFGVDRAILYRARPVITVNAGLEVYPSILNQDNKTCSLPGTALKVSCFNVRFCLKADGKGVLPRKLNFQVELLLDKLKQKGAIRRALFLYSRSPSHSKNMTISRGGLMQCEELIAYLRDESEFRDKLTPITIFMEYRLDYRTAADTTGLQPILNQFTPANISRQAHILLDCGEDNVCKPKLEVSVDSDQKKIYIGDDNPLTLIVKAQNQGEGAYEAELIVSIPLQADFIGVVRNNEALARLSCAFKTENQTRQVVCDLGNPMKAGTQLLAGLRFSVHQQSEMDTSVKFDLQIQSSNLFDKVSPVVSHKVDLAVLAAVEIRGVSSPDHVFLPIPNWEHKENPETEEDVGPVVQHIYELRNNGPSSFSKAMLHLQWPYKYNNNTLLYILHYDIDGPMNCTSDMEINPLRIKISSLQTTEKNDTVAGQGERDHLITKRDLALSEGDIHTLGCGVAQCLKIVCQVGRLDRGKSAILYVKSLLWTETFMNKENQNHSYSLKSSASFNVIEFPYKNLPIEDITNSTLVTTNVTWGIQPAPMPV
human integrin αVβ8, sequence (P26012 43-684 limits assumed): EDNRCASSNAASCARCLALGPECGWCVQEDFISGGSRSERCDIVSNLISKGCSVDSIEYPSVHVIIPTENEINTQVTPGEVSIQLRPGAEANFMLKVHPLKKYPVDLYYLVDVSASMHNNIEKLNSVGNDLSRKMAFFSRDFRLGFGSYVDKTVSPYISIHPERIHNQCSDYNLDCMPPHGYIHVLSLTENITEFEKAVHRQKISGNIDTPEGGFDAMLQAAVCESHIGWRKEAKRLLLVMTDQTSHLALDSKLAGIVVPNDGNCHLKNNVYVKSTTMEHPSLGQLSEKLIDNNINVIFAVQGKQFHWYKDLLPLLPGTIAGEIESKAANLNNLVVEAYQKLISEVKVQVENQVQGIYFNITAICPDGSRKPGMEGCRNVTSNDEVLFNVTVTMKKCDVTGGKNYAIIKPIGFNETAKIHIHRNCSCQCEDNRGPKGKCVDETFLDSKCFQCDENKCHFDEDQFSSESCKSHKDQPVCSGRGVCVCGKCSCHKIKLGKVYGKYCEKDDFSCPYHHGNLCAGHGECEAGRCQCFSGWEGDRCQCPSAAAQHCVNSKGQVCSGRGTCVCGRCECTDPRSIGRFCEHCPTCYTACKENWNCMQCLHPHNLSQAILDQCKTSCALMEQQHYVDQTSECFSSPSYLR
human integrin αVβ1, sequence (P06756 31-992 limits assumed): as the sequence (P06756 31-992 limits assumed) above
human integrin αVβ1, sequence (P05556 21-728 limits assumed): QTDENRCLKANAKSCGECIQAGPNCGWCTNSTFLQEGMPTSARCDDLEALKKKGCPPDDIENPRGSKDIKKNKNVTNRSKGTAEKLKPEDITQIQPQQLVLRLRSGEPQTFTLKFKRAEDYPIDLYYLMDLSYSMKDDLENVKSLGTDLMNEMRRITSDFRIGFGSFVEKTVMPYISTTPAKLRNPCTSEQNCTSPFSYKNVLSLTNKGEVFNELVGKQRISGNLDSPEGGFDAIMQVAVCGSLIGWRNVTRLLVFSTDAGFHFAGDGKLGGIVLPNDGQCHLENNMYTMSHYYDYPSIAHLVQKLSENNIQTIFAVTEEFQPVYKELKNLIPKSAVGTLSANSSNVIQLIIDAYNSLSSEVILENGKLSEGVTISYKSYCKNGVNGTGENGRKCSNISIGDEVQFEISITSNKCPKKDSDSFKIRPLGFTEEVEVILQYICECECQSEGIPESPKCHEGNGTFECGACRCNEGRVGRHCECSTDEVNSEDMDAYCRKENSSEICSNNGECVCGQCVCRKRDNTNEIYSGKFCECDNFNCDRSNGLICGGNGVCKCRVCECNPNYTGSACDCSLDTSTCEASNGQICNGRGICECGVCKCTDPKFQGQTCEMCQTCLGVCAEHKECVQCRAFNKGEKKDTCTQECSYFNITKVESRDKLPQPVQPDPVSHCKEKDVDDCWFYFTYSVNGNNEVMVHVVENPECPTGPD
human integrin αVβ6, sequence (P06756 31-992 limits assumed): as the sequence (P06756 31-992 limits assumed) above
human integrin αVβ6, sequence (P18564 22-707 limits assumed): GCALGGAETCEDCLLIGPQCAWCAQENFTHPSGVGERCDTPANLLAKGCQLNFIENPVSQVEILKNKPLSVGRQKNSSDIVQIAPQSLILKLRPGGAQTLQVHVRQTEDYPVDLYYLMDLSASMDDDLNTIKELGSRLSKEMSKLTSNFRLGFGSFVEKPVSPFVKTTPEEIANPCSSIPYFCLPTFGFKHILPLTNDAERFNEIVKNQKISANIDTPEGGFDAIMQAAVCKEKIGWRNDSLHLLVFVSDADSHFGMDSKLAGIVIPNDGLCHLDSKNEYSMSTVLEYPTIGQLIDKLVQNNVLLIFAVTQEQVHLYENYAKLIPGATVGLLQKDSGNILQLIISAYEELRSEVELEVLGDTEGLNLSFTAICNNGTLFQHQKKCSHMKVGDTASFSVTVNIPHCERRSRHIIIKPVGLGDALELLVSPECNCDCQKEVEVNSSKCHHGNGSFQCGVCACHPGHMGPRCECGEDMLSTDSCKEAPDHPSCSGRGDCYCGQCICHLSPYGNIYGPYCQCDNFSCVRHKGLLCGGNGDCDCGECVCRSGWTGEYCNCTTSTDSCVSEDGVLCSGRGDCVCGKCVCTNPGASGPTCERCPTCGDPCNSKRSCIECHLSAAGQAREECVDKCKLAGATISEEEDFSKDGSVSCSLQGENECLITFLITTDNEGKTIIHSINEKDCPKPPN

N#Cc1cc(F)ccc1C1(C(=O)N[C@@H](CCOCCCCc2ccc3c(n2)NCCC3)C(=O)O)CC1 [Compound 43, N-(1-(2-cyano-4-fluorophenyl)cyclopropane-1-carbonyl)-O-(4-(5,6,7,8-tetrahydro-1,8-naphthyridin-2-yl)butyl)-L-homoserine]
IC50 (human integrin αVβ6): ≥ 0.5 µM
IC50 (human integrin αVβ8): < 0.05 µM
IC50 (human integrin αVβ1): < 0.05 µM

CC(C)(C(=O)N[C@@H](CCOCCCCc1ccc2c(n1)NCCC2)C(=O)O)c1cc(F)cnc1Cl [Compound 23, N-(2-(2-chloro-5-fluoropyridin-3-yl)-2-methylpropanoyl)-O-(4-(5,6,7,8-tetrahydro-1,8-naphthyridin-2-yl)butyl)-L-homoserine]
IC50 (human integrin αVβ6): 0.25 to 0.5 µM
IC50 (human integrin αVβ8): 0.05 to 0.15 µM
IC50 (human integrin αVβ1): < 0.05 µM

O=C(O)[C@H](CCOCCCCc1ccc2c(n1)NCCC2)NC(=O)C1(c2nccnc2C(F)(F)F)CC1 [Compound 67, O-(4-(5,6,7,8-tetrahydro-1,8-naphthyridin-2-yl)butyl)-N-(1-(3-(trifluoromethyl)pyrazin-2-yl)cyclopropane-1-carbonyl)-L-homoserine]
IC50 (human integrin αVβ6): ≥ 0.5 µM
IC50 (human integrin αVβ8): < 0.05 µM
IC50 (human integrin αVβ1): < 0.05 µM

O=C(O)[C@H](CCOCCCCc1ccc2c(n1)NCCC2)NC(=O)C1(c2ccccc2)CC1 [Compound 10, N-(1-phenylcyclopropane-1-carbonyl)-O-(4-(5,6,7,8-tetrahydro-1,8-naphthyridin-2-yl)butyl)-L-homoserine]
IC50 (human integrin αVβ6): ≥ 0.5 µM
IC50 (human integrin αVβ8): 0.05 to 0.15 µM
IC50 (human integrin αVβ1): < 0.05 µM

O=C(O)[C@H](CCOCCCCc1ccc2c(n1)NCCC2)NC(=O)C1(c2ncncc2Cl)CC1 [Compound 49, N-(1-(5-chloropyrimidin-4-yl)cyclopropane-1-carbonyl)-O-(4-(5,6,7,8-tetrahydro-1,8-naphthyridin-2-yl)butyl)-L-homoserine]
IC50 (human integrin αVβ6): ≥ 0.5 µM
IC50 (human integrin αVβ8): < 0.05 µM
IC50 (human integrin αVβ1): < 0.05 µM

Cc1cc(Cl)n(C2(C(=O)N[C@@H](CCOCCCCc3ccc4c(n3)NCCC4)C(=O)O)CC2)n1 [Compound 72, N-(1-(5-chloro-3-methyl-1H-pyrazol-1-yl)cyclopropane-1-carbonyl)-O-(4-(5,6,7,8-tetrahydro-1,8-naphthyridin-2-yl)butyl)-L-homoserine]
IC50 (human integrin αVβ6): ≥ 0.5 µM
IC50 (human integrin αVβ8): < 0.05 µM
IC50 (human integrin αVβ1): < 0.05 µM

N#Cc1cccc(F)c1C1(C(=O)N[C@@H](CCOCCCCc2ccc3c(n2)NCCC3)C(=O)O)CC1 [Compound 37, N-(1-(2-cyano-6-fluorophenyl)cyclopropane-1-carbonyl)-O-(4-(5,6,7,8-tetrahydro-1,8-naphthyridin-2-yl)butyl)-L-homoserine]
IC50 (human integrin αVβ6): 0.25 to 0.5 µM
IC50 (human integrin αVβ8): < 0.05 µM
IC50 (human integrin αVβ1): < 0.05 µM

N#Cc1ccccc1C1(C(=O)N[C@@H](CCOCCCCc2ccc3c(n2)NCCC3)C(=O)O)CC1 [Compound 45, N-(1-(2-cyanophenyl)cyclopropane-1-carbonyl)-O-(4-(5,6,7,8-tetrahydro-1,8-naphthyridin-2-yl)butyl)-L-homoserine]
IC50 (human integrin αVβ6): ≥ 0.5 µM
IC50 (human integrin αVβ8): 0.05 to 0.15 µM
IC50 (human integrin αVβ1): < 0.05 µM

Cc1cnc(C2(C(=O)N[C@@H](CCOCCCCc3ccc4c(n3)NCCC4)C(=O)O)CC2)c(Cl)c1 [Compound 36, N-(1-(3-chloro-5-methylpyridin-2-yl)cyclopropane-1-carbonyl)-O-(4-(5,6,7,8-tetrahydro-1,8-naphthyridin-2-yl)butyl)-L-homoserine]
IC50 (human integrin αVβ6): ≥ 0.5 µM
IC50 (human integrin αVβ8): < 0.05 µM
IC50 (human integrin αVβ1): < 0.05 µM

Cc1cncc(F)c1C1(C(=O)N[C@@H](CCOCCCCc2ccc3c(n2)NCCC3)C(=O)O)CC1 [Compound 47, N-(1-(3-fluoro-5-methylpyridin-4-yl)cyclopropane-1-carbonyl)-O-(4-(5,6,7,8-tetrahydro-1,8-naphthyridin-2-yl)butyl)-L-homoserine]
IC50 (human integrin αVβ6): 0.25 to 0.5 µM
IC50 (human integrin αVβ8): < 0.05 µM
IC50 (human integrin αVβ1): < 0.05 µM

N#Cc1cncc(C2(C(=O)N[C@@H](CCOCCCCc3ccc4c(n3)NCCC4)C(=O)O)CC2)c1 [Compound 27, N-(1-(5-cyanopyridin-3-yl)cyclopropane-1-carbonyl)-O-(4-(5,6,7,8-tetrahydro-1,8-naphthyridin-2-yl)butyl)-L-homoserine]
IC50 (human integrin αVβ6): ≥ 0.5 µM
IC50 (human integrin αVβ8): 0.15 to 0.25 µM
IC50 (human integrin αVβ1): < 0.05 µM

Cc1ccncc1C1(C(=O)N[C@@H](CCOCCCCc2ccc3c(n2)NCCC3)C(=O)O)CC1 [Compound 16, N-(1-(4-methylpyridin-3-yl)cyclopropane-1-carbonyl)-O-(4-(5,6,7,8-tetrahydro-1,8-naphthyridin-2-yl)butyl)-L-homoserine]
IC50 (human integrin αVβ6): ≥ 0.5 µM
IC50 (human integrin αVβ8): < 0.05 µM
IC50 (human integrin αVβ1): < 0.05 µM

O=C(O)[C@H](CCOCCCCc1ccc2c(n1)NCCC2)NC(=O)C1(c2cncnc2C(F)(F)F)CC1 [Compound 48, O-(4-(5,6,7,8-tetrahydro-1,8-naphthyridin-2-yl)butyl)-N-(1-(4-(trifluoromethyl)pyrimidin-5-yl)cyclopropane-1-carbonyl)-L-homoserine]
IC50 (human integrin αVβ6): ≥ 0.5 µM
IC50 (human integrin αVβ8): < 0.05 µM
IC50 (human integrin αVβ1): < 0.05 µM

N#Cc1cccnc1C1(C(=O)N[C@@H](CCOCCCCc2ccc3c(n2)NCCC3)C(=O)O)CC1 [Compound 32, N-(1-(3-cyanopyridin-2-yl)cyclopropane-1-carbonyl)-O-(4-(5,6,7,8-tetrahydro-1,8-naphthyridin-2-yl)butyl)-L-homoserine]
IC50 (human integrin αVβ6): ≥ 0.5 µM
IC50 (human integrin αVβ8): < 0.05 µM
IC50 (human integrin αVβ1): < 0.05 µM

O=C(O)[C@H](CCOCCCCc1ccc2c(n1)NCCC2)NC(=O)C1(c2ncccc2C(F)(F)F)CC1 [Compound 25, O-(4-(5,6,7,8-tetrahydro-1,8-naphthyridin-2-yl)butyl)-N-(1-(3-(trifluoromethyl)pyridin-2-yl)cyclopropane-1-carbonyl)-L-homoserine]
IC50 (human integrin αVβ6): ≥ 0.5 µM
IC50 (human integrin αVβ8): < 0.05 µM
IC50 (human integrin αVβ1): < 0.05 µM

Cc1cccnc1C1(C(=O)N[C@@H](CCOCCCCc2ccc3c(n2)NCCC3)C(=O)O)CC1 [Compound 29, N-(1-(3-methylpyridin-2-yl)cyclopropane-1-carbonyl)-O-(4-(5,6,7,8-tetrahydro-1,8-naphthyridin-2-yl)butyl)-L-homoserine]
IC50 (human integrin αVβ6): ≥ 0.5 µM
IC50 (human integrin αVβ8): < 0.05 µM
IC50 (human integrin αVβ1): 0.05 to 0.15 µM

NC(=O)c1cccc(F)c1C1(C(=O)N[C@@H](CCOCCCCc2ccc3c(n2)NCCC3)C(=O)O)CC1 [Compound 95, N-(1-(2-carbamoyl-6-fluorophenyl)cyclopropane-1-carbonyl)-O-(4-(5,6,7,8-tetrahydro-1,8-naphthyridin-2-yl)butyl)-L-homoserine]
IC50 (human integrin αVβ6): > 0.5 µM
IC50 (human integrin αVβ8): 0.05 to 0.15 µM
IC50 (human integrin αVβ1): 0.05 to 0.15 µM

O=C(O)[C@H](CCOCCCCc1ccc2c(n1)NCCC2)NC(=O)C1(c2cc(F)cnc2F)CC1 [Compound 21, N-(1-(2,5-difluoropyridin-3-yl)cyclopropane-1-carbonyl)-O-(4-(5,6,7,8-tetrahydro-1,8-naphthyridin-2-yl)butyl)-L-homoserine]
IC50 (human integrin αVβ6): 0.15 to 0.25 µM
IC50 (human integrin αVβ8): < 0.05 µM
IC50 (human integrin αVβ1): < 0.05 µM

O=C(O)[C@H](CCOCCCCc1ccc2c(n1)NCCC2)NC(=O)C1(C(F)(F)F)CCN(CC(F)(F)F)CC1 [Compound 96, O-(4-(5,6,7,8-tetrahydro-1,8-naphthyridin-2-yl)butyl)-N-(1-(2,2,2-trifluoroethyl)-4-(trifluoromethyl)piperidine-4-carbonyl)-L-homoserine]
IC50 (human integrin αVβ6): > 0.5 µM
IC50 (human integrin αVβ8): < 0.05 µM
IC50 (human integrin αVβ1): < 0.05 µM

O=C(O)[C@H](CCOCCCCc1ccc2c(n1)NCCC2)NC(=O)C1(c2[nH]ncc2Cl)CC1 [Compound 71, N-(1-(4-chloro-1H-pyrazol-5-yl)cyclopropane-1-carbonyl)-O-(4-(5,6,7,8-tetrahydro-1,8-naphthyridin-2-yl)butyl)-L-homoserine]
IC50 (human integrin αVβ6): ≥ 0.5 µM
IC50 (human integrin αVβ8): < 0.05 µM
IC50 (human integrin αVβ1): < 0.05 µM

COc1cccnc1C1(C(=O)N[C@@H](CCOCCCCc2ccc3c(n2)NCCC3)C(=O)O)CC1 [Compound 30, N-(1-(3-methoxypyridin-2-yl)cyclopropane-1-carbonyl)-O-(4-(5,6,7,8-tetrahydro-1,8-naphthyridin-2-yl)butyl)-L-homoserine]
IC50 (human integrin αVβ6): ≥ 0.5 µM
IC50 (human integrin αVβ8): 0.05 to 0.15 µM
IC50 (human integrin αVβ1): 0.05 to 0.15 µM

O=C(O)[C@H](CCOCCCCc1ccc2c(n1)NCCC2)NC(=O)C1(c2ncccc2C(F)F)CC1 [Compound 40, N-(1-(3-(difluoromethyl)pyridin-2-yl)cyclopropane-1-carbonyl)-O-(4-(5,6,7,8-tetrahydro-1,8-naphthyridin-2-yl)butyl)-L-homoserine]
IC50 (human integrin αVβ6): ≥ 0.5 µM
IC50 (human integrin αVβ8): < 0.05 µM
IC50 (human integrin αVβ1): < 0.05 µM

Cn1ncc(Cl)c1C1(C(=O)N[C@@H](CCOCCCCc2ccc3c(n2)NCCC3)C(=O)O)CC1 [Compound 51, N-(1-(4-chloro-1-methyl-1H-pyrazol-5-yl)cyclopropane-1-carbonyl)-O-(4-(5,6,7,8-tetrahydro-1,8-naphthyridin-2-yl)butyl)-L-homoserine]
IC50 (human integrin αVβ6): ≥ 0.5 µM
IC50 (human integrin αVβ8): < 0.05 µM
IC50 (human integrin αVβ1): < 0.05 µM
